Values joined by “and” are separate entries in the source; they are usually repeats but may differ in a detail not shown here. Identical values can stand only once. “Also recorded” adds a separate entry of the source. Like-named read-outs stand apart in the source and are kept apart here. Where a SMILES comes first, the peptide text is derived from it.
What was measured:
[1] = test system: no_GPCR (negative control lacking a GPCR); format: cell-based, Saccharomyces cerevisiae; details: SC + added peptide, individual replicates (n=3)
Fo.Ste2 [2] = experiment: YeMaP Library-on-One: YPL1 pheromone library enrichment by mating, NGS; format: cell-based, Fusarium oxysporum; details: YPL1 library cocultured with Fo.Ste2 strain GEN90, 20 h, 2 d diploid enrichment, NextSeq 500
Fg.Ste2 [3] = format: cell-based, Fusarium graminearum; details: Fg + Cm (Fg 0.5 μM, Cm 10 μM); Control mean 6548; mean of n = 4
Fo.Ste2 [4] = format: cell-based, Fusarium oxysporum
Bc.Ste2 [5] = format: cell-based, Botrytis cinerea; details: YPL1 library cocultured with Bc.Ste2 strain GEN89, 20 h, 2 d diploid enrichment, NextSeq 500
Fo.Ste2 [6] = format: cell-based, Fusarium oxysporum; remark: listed apart in the source
Fo.Ste2 [7] = experiment: Yeast GPCR biosensor, cognate agonist together with candidate antagonist Cm; format: cell-based, Fusarium oxysporum; details: Fo + Cm (Fo 0.5 μM, Cm 10 μM); Control mean 6141; mean of n = 4
Bc.Ste2 [8] = format: cell-based, Botrytis cinerea; details: 10 μM
Bb.Ste2 [9] = format: cell-based, Beauveria bassiana; details: Bb + Cm (Bb 0.0005 μM, Cm 10 μM); Control mean 6960; mean of n = 4
Bc.Ste2 [10] = format: cell-based, Botrytis cinerea; details: for Bc.Ste2 (activation): with Bc agonist, normalised
Bb.Ste2 [11] = format: cell-based, Beauveria bassiana
Bb.Ste2 [12] = format: cell-based, Beauveria bassiana; details: YPL1 library cocultured with Bb.Ste2 strain GEN88, 20 h, 2 d diploid enrichment, NextSeq 500
Bc.Ste2 [13] = format: cell-based, Botrytis cinerea
Bb.Ste2 [14] = format: cell-based, Beauveria bassiana; remark: listed apart in the source
Fg.Ste2 [15] = format: cell-based, Fusarium graminearum; details: YPL1 library cocultured with Fg.Ste2 strain GEN87, 20 h, 2 d diploid enrichment, NextSeq 500
Hj.Hpr2 = format: cell-based, Hypocrea jecorina
Fg.Ste2 [16] = test system: Fg.Ste2
Fg.Ste2 [17] = format: cell-based, Fusarium graminearum; details: 10 μM; Control mean 6548; mean of n = 4

SMILES: CC(C)C[C@H](NC(=O)[C@H](CS)NC(=O)[C@@H](N)Cc1c[nH]c2ccccc12)C(=O)N[C@@H](CCCNC(=N)N)C(=O)N1CCC[C@H]1C(=O)NCC(=O)N[C@@H](CCC(N)=O)C(=O)N1CCC[C@H]1C(=O)N[C@@H](CS)C(=O)N[C@@H](Cc1c[nH]c2ccccc12)C(=O)O [Cm] (H-WCLRPGQPCW-OH; N-terminus and C-terminus assumed)
- barcode qPCR of diploids, no_GPCR x Fg.Pheromone ([1]; SC alone: 0, 0, 0): 0 and 0.032 and 0.007
- barcode qPCR of diploids, no_GPCR x Hj.Pheromone ([1]; SC alone: 0, 0, 0): 0 (2×) and 0.052
- barcode qPCR of diploids, no_GPCR x Bb.Pheromone ([1]; SC alone: 0, 0, 0.004): 0 (2×) and 0.005
- barcode qPCR of diploids, no_GPCR x Fo.Pheromone ([1]; SC alone: 0, 0, 0.007): 0.005 and 0 (2×)
- barcode qPCR of diploids, no_GPCR x no_Pheromone ([1]; SC alone: 0.001, 0.001, 0): 0.027 and 0.026 and 0.002
- Enrichment after mating, reads per million minus library before coculture (Fo.Ste2 [2]): consistently lacking
- Sup.Fig.3B Fg.Ste2 biosensor response, group mean (Fg.Ste2 [3]): 219822
- Fold decline in diploids containing Fo.Ste2 (Fo.Ste2 [4]): 0.2 fold
- Mean 2 (SC + peptide), Fo share of diploids (Fo.Ste2 [4]): 0.087
- Mean Diff, SC vs. + peptide (Fo.Ste2 [4]; n = 3): 0.4046
- Enrichment after mating, reads per million minus library before coculture (Bc.Ste2 [5]): consistently lacking
- Activation of Fo.Ste2 biosensor, in words (Fo.Ste2 [6]): triggered the activation; also recorded: agonists for Fo.Ste2
- Hillslope (Fo.Ste2 [6]): 1.276
- logEC50 (Fo.Ste2 [6]): -6.973
- Sup.Fig.3B Fo.Ste2 biosensor response, group mean (Fo.Ste2 [6]; 10 μM): 1362500
- Sup.Fig.3B Fo.Ste2 biosensor response, group mean (Fo.Ste2 [7]): 1377500
- Sup.Fig.3B Bc.Ste2 biosensor response, group mean (Bc.Ste2 [8]): 6819
- Sup.Fig.3B Bb.Ste2 biosensor response, group mean (Bb.Ste2 [9]): 1335000
- Effect on activation of Bc.Ste2 by Bc pheromone, in words (Bc.Ste2 [10]; 0.0005 μM Bc pheromone in combination with 10 μM peptide, four biological replicates, Fig. 2G): completely abolished
- Sup.Fig.3B Bc.Ste2 biosensor response, group mean (Bc.Ste2 [10]; Bc + Cm (Bc 0.0005 μM, Cm 10 μM), Control mean 6719, mean of n = 4): 9961
- Bc.Ste2 + pheromones, biosensor response, group mean (Bc.Ste2 [10]; Bc + the named peptide, Bc alone mean 134.8, mean of n = 4): 1.794
- Hillslope (Bc.Ste2 [10]; Bc.Ste2 + Cm (antagonist), four-parameter fit, best-fit value): -289008
- Excess of the antagonist compared to the agonist at IC50 (Bc.Ste2 [10]; Bc.Ste2, 0.0005 μM Bc pheromone): 2,000 fold
- Bc.Ste2 (activation) (Bc.Ste2 [10]; Concentration 1e-6, replicate 1): 49.9332
- Bc.Ste2 (activation) (Bc.Ste2 [10]; Concentration 1e-6, replicate 2): 46.5053
- Bc.Ste2 (activation) (Bc.Ste2 [10]; Concentration 1e-6, replicate 3): 51.6445
- Bc.Ste2 (activation) (Bc.Ste2 [10]; Concentration 1e-6, replicate 4): 48.6418
- Bc.Ste2 (activation) (Bc.Ste2 [10]; Concentration 5e-6, replicate 1): 5.491
- Bc.Ste2 (activation) (Bc.Ste2 [10]; Concentration 5e-6, replicate 2): 4.729
- Bc.Ste2 (activation) (Bc.Ste2 [10]; Concentration 5e-6, replicate 3): 4.1657
- Bc.Ste2 (activation) (Bc.Ste2 [10]; Concentration 5e-6, replicate 4): 2.595
- Bc.Ste2 (activation) (Bc.Ste2 [10]; Concentration 1e-5, replicate 1): 1.904
- Bc.Ste2 (activation) (Bc.Ste2 [10]; Concentration 1e-5, replicate 2): 1.546
- Bc.Ste2 (activation) (Bc.Ste2 [10]; Concentration 1e-5, replicate 3): 1.924
- Bc.Ste2 (activation) (Bc.Ste2 [10]; Concentration 1e-5, replicate 4): 1.801
- Bc.Ste2 (activation) (Bc.Ste2 [10]; Concentration 1.00E-07, replicate 1): 86.3218
- Bc.Ste2 (activation) (Bc.Ste2 [10]; Concentration 1.00E-07, replicate 2): 95.1098
- Bc.Ste2 (activation) (Bc.Ste2 [10]; Concentration 1.00E-07, replicate 3): 89.2984
- Bc.Ste2 (activation) (Bc.Ste2 [10]; Concentration 1.00E-07, replicate 4): 97.6612
- Bc.Ste2 (activation) (Bc.Ste2 [10]; Concentration 1.00E-08, replicate 1): 96.9525
- Bc.Ste2 (activation) (Bc.Ste2 [10]; Concentration 1.00E-08, replicate 2): 96.5273
- Bc.Ste2 (activation) (Bc.Ste2 [10]; Concentration 1.00E-08, replicate 3): 99.5039
- Bc.Ste2 (activation) (Bc.Ste2 [10]; Concentration 1.00E-08, replicate 4): 98.7952
- Bc.Ste2 (activation) (Bc.Ste2 [10]; Concentration 1.00E-09, replicate 1): 101.063
- Bc.Ste2 (activation) (Bc.Ste2 [10]; Concentration 1.00E-09, replicate 2): 96.9525
- Bc.Ste2 (activation) (Bc.Ste2 [10]; Concentration 1.00E-09, replicate 3): 99.9291
- Bc.Ste2 (activation) (Bc.Ste2 [10]; Concentration 1.00E-09, replicate 4): 101.063
- Bc.Ste2 (activation) (Bc.Ste2 [10]; Concentration 5.00E-07, replicate 1): 78.8094
- Bc.Ste2 (activation) (Bc.Ste2 [10]; Concentration 5.00E-07, replicate 2): 64.2098
- Bc.Ste2 (activation) (Bc.Ste2 [10]; Concentration 5.00E-07, replicate 3): 79.0928
- Bc.Ste2 (activation) (Bc.Ste2 [10]; Concentration 5.00E-07, replicate 4): 82.7782
- Bc.Ste2 (activation) (Bc.Ste2 [10]; Concentration 5.00E-08, replicate 1): 94.4011
- Bc.Ste2 (activation) (Bc.Ste2 [10]; Concentration 5.00E-08, replicate 2): 98.7952
- Bc.Ste2 (activation) (Bc.Ste2 [10]; Concentration 5.00E-08, replicate 3): 96.9525
- Bc.Ste2 (activation) (Bc.Ste2 [10]; Concentration 5.00E-08, replicate 4): 98.7952
- Mean 2 (SC + peptide), Bb share of diploids (Bb.Ste2 [11]): 0.01767
- barcode qPCR of diploids, Bb.Ste2 x Fo.Pheromone (Bb.Ste2 [11]): 0.04 and 0.041 and 0.037
- barcode qPCR of diploids, Bb.Ste2 x no_Pheromone (Bb.Ste2 [11]): 0.037 and 0.028 and 0.049
- Mean Diff, SC vs. + peptide (Bb.Ste2 [11]; n = 3): 0.02891
- Enrichment after mating, reads per million minus library before coculture (Bb.Ste2 [12]): +7,508 RPM
- Reduction in diploid formation (Bc.Ste2 [13]): two-fold reduction
- Activation of Bb.Ste2 biosensor, in words (Bb.Ste2 [14]): triggered the activation
- Sup.Fig.3B Bb.Ste2 biosensor response, group mean (Bb.Ste2 [14]; 10 μM): 1237500
- Enrichment after mating, reads per million minus library before coculture (Fg.Ste2 [15]): consistently lacking
- Mean 2 (SC + peptide), Hj share of diploids (Hj.Hpr2): 0.004151
- barcode qPCR of diploids, Hj.HPR2 x Bb.Pheromone (Hj.Hpr2): 0
- barcode qPCR of diploids, Hj.HPR2 x Fg.Pheromone (Hj.Hpr2): 0
- barcode qPCR of diploids, Hj.HPR2 x no_Pheromone (Hj.Hpr2): 0
- Mean Diff, SC vs. + peptide (Hj.Hpr2; n = 3): -0.002114
- barcode qPCR of diploids, Fg.Ste2 x Hj.Pheromone (Fg.Ste2 [16]; SC + added peptide, individual replicates (n=3), SC alone: 0.003, 0.004, 0.001): 0.028 and 0.017 and 0.029
- barcode qPCR of diploids, Fg.Ste2 x Fo.Pheromone (Fg.Ste2 [16]; SC + added peptide, individual replicates (n=3), SC alone: 0.005, 0.005, 0.013): 0.014 and 0.066 and 0.033
- barcode qPCR of diploids, Fg.Ste2 x no_Pheromone (Fg.Ste2 [16]; SC + added peptide, individual replicates (n=3), SC alone: 0.012, 0.001, 0.003): 0 and 0.143 and 0.133
- barcode qPCR of diploids, Fg.Ste2 x Bb.Pheromone (Fg.Ste2 [16]; SC + added peptide, individual replicates (n=3), SC alone: 0.012, 0.009, 0.006): 0.032 and 0.042 and 0.028
- barcode qPCR of diploids, Fg.Ste2 x Fg.Pheromone (Fg.Ste2 [16]; SC + added peptide, individual replicates (n=3), SC alone: 0.206, 0.237, 0.235): 0.441 and 0.282 and 0.373
- Fold increase in diploids containing Fg.Ste2 (Fg.Ste2 [16]; consortium in SC media, 10 μM external peptide, three biological replicates): 2.2 fold
- Sup.Fig.3B Fg.Ste2 biosensor response, group mean (Fg.Ste2 [17]): 14826
